The source of these data is US12297210B2, “Naphthyridine compounds and uses thereof” (Genentech, Inc., priority 2018, dated 2025).

Assay [1] addresses T1, HPK full length, T165E S171E (Homo sapiens, UniProt Q92918, S171E/T165E).
T1 construct: HPK full length, T165E S171E: 0.125 nM
The assay is described as follows: HPK1-FL HTRF Enzymatic Assay ("HTRF"). The assay is classed as biochemical. As to conditions: ATP 1 mM, read-out: HPK1 Ki (nM) H = HTRF. On the procedure:
Example B1: HPK1-FL HTRF Enzymatic Assay (“HTRF”)
HPK-FL enzyme phosphorylates Biotin-SLP-76 substrate in the presence of ATP at 1 mM and varying concentrations of test compound. Product is detected by FRET using Eu-anti-pSLP76 Ab and SA-XL665. Also see www.cisbio.com/HTRF for additional HTRF technology information.
• Echo555 compound dispenser • Agilent Bravo • Perkin Elmer Envision Final Assay Conditions: • HPK full length, T165E S171E: 0.125 nM • Biotin-SLP76: 100 nM • ATP: 1 mM (ATP Km=20 μM) • Eu-anti-pSLP76: 2 nM • SA-XL665: 8.3 nM • Preincubation time: 30 min • Kinase reaction time: 60 min • Temperature: ambient • Total volume: 12 μl • ATP^app Km: 17.7 μM Materials: • Assay plate: White ProxiPlate 384 F (PerkinElmer cat #6008289) • Kinase: HPK full length double mutant • Substrate: Biotin-SLP76 • ATP: 100 mM ATP • BSG: 2% BSG • DMSO: DMSO(Sigma cat #34869-100ML) • Reaction Buffer: H2O/50 mM HEPES, pH 7.5/10 mM MgCl2/2 mM TCEP/0.01% Brij-35/0.01% BSG • Detection mix: Eu-anti-pSLP76/SA-XL665 (Cisbio, #610SAXAC) Assay Procedure Ki Determination:
To a 384 well Proxiplate with 80 nL compound or DMSO spotted on was added 4 μl/well kinase mix. The mixture was preincubated for 30 minutes and then 4 μl/well substrate mix was added. The solution was incubated for 60 min and then 4 μl/well detection mix was added. The solution was incubated for another 60 min. The plates were then loaded onto a Perkin Elmer Envision and the TR-FRET signal was measured at 615 and 665 nm. A ratio of […] was used to calculate the % activity at each concentration of compound.

Assay [2] relates to primary human pan T cells. The assay is described as follows: Human T-Cell IL2 Induction Assay. It counts as cell-based. As to conditions: assayed concentration 0.31 μM; anti-CD3/anti-CD28 stimulated primary human pan T cells. The protocol:
Example B3: Human T-Cell IL2 Induction Assay
Anti-CD3 and anti-CD28 activates TCR signaling in primary human pan T cells leading to IL-2 promoter induction. Secreted IL-2 in cell culture supernatant is detected by electrochemiluminescence using a capture antibody against IL-2 and an anti-IL-2 antibody labeled with SULFO-tag.
Incubate primary human pan T cells with varying concentrations of test compounds for 30 minutes in a humidified incubator at 37° C. and 5% CO2. Transfer cells to a plate pre-coated with a fixed concentration of anti-human CD3 (determined separately for each donor lot) and add soluble anti-human CD28 (final concentration=1 μg/ml). Stimulate cells in a humidified incubator at 37° C. and 5% CO2 for 4 hours. Transfer 25 μl of supernatant to a MSD single spot plate pre-coated with an anti-human IL-2 antibody. Incubate MSD plate overnight at 4° C. with gentle shaking. Wash MSD plate 4× with wash buffer. Add SULFO-tagged detection antibody at a 1:50 dilution and incubate at room temperature shaking for 2 hours. Wash MSD plate 4× with wash buffer and add 150 μl 2×MSD read buffer. Read on an MSD instrument. […]
Exemplary compounds of Formula (I) were tested in the human T-cell IL-2 induction assays. The % increase measured for IL-2 in cells treated by the test compounds relative to untreated cells are provided in Table B2 for certain compounds.

T1 sequence (Q92918 whole entry T165E/S171E): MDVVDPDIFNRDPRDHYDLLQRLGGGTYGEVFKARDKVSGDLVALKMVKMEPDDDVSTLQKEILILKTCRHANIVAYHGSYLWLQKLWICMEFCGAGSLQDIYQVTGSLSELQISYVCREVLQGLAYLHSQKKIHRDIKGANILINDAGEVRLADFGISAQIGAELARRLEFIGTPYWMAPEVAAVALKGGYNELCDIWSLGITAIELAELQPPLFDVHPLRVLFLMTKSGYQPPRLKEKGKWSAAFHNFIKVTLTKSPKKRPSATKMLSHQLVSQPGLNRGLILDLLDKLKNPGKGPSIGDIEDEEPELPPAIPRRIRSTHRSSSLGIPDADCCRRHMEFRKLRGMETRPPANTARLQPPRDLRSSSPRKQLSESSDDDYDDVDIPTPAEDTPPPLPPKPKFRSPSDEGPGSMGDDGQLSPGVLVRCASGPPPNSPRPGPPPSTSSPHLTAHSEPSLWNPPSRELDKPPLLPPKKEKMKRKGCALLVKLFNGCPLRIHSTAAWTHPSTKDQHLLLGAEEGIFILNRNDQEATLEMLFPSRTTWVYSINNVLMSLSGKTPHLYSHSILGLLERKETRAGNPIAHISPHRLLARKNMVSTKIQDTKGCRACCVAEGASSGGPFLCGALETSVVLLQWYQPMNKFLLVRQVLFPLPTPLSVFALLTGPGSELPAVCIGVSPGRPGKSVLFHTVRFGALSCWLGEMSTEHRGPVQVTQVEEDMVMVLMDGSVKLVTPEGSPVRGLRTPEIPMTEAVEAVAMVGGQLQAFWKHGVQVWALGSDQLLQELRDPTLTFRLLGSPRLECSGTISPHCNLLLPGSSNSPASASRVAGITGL

The Ki is the equilibrium dissociation constant of an inhibitor or competing ligand from its target. Consider `Cc1c(N)cncc1-c1cc2cc(Nc3cc4n(n3)CC(=O)N(C)CC43CC3)ncc2c(C)n1` [Compound 101, 2′-((6-(5-amino-4-methylpyridin-3-yl)-8-methyl-2,7-naphthyridin-3-yl)amino)-6′-methyl-5′,6′-dihydrospiro[cyclopropane-1,4′-pyrazolo[1,5-d][1,4]diazepin]-7′(8′H)-one], for which, in assay [1], the inhibition constant Ki came out at 0.27 nM. For the same molecule, the “% IL-2 increase relative to untreated cells” value in assay [2] was found to be 421%.
